Tests used:
[1] = tested on: human male scalp skin grafted onto SCID mice; assay: Hair growth of human male scalp skin grafted onto SCID mice; type: in vivo; conditions: human scalp grafts on SCID/beige mice; FOL-005 300 nM per graft intradermally twice a week; Minoxidil 5% topically twice a day; three months
From the text: The effect of FOL-005 on hair growth of human male scalp skin grafted onto SCID mice was studied.
The aim of the study was to investigate the effect of FOL-005 on hair growth of human male scalp skin with tendency to androgenetic alopecia. In order to address this issue, fort-two female SCID/beige mice, six weeks of age, were involved in the study. Punch grafts, 3 mm^2, obtained from scalp skin of human volunteers with tendency to develop common alopecia, were transplanted onto SCID/beige mice (three grafts per mouse).
One week following transplantation, the mice were randomly divided into four treated groups as follows: • 1. Vehicle (10 mice) was injected intradermally twice a week and served as a negative control. • 2. Minoxidil (5%) (11 mice) was applied topically twice a day and served as appositive control. • 3. FOL-005 (300 nM per graft) (11 mice) was injected intradermally twice a week. • 4. Minoxidil 5%+FOL-005/Minoxidil (5%) (11 mice) was applied topically twice a day. FOL-005 (300 nM per graft) was injected intradermally twice a week. For the first 4 weeks the animals were treated with minoxidil only (in order to initiate hair growth) and then for the remaining period (2 months) FOL-005 treatment was added as injections, while minoxidil treatment was maintained as a topical application.
The number of hairs/graft was counted twice a week by two independent observers. […]

[2] = tested on: intact human scalp skin; assay: Masson-Fontana melanin pigmentation in intact human scalp skin; type: cell-based; conditions: injection or addition to the culture medium
Procedure: FIG. 8). Effect of FOL-005 on melatonin content in intact human scalp skin. The analysis was performed using Masson Fontana histochemistry and morphometric evaluation of each tissue section. Results presented as mean+/−SEM. One-way ANOVA and Bonferroni's post-hoc test, **p<0.01, *p<0.05. “D3”=3 days after treatment.
(§1) At different time points, skin specimens were embedded in O.C.T.™ Tissue-TEK (Sakura, Zoeterwoude, the Netherlands), frozen in liquid nitrogen, and 6 μm cryosections were cut. The sections were then post-fixed in acetone, air-dried and processed for haematoxylin and eosin (H&E; Sigma), Giemsa or Masson-Fontana histochemistry. Individual hair follicles were analysed with respect to their stage of cycling as described (Whiting et al. 1999), while hair follicle melanization was assessed by standard silver nitrate histochemistry (Masson-Fontana stain). Quantification of well-defined reference areas within the proximal hair matrix was performed using the Image J software (NIH).
Pigmentation changes in isolated follicles treated with exemplary polypeptide FOL-005 were assessed by Masson-Fontana histochemistry (see Whiting et al., 1999, J Investig Dermatol Symp Proc 4:282-284, the relevant disclosures of which are incorporated by reference).

[3] = tested on: human HFs in organ-cultured full-thickness human scalp skin fragments; assay: Hair follicle morphology (PAS staining); type: cell-based
Procedure: (§2) The following experiments were performed using human HFs in organ-cultured full-thickness human scalp skin fragments (4 mm, 6 female patients, 42-65 yrs).

[4] = tested on: human HFs in organ-cultured full-thickness human scalp skin fragments; assay: Emigration of dermal papilla cells in organ-cultured human scalp skin fragments; type: cell-based; conditions: anagen HFs only; pooled data from six patients
Procedure: FIG. 11). Effect of FOL-005 on emigration of Dermal Papilla (DP) cells. Only Anagen Hair follicles (HFs) analysed. Results based on pooled data from 6 patients. No significant change in the number of emigrating DP cells in HFs treated with FOL-005. Mean+/−SEM, n=18-22 HFs evaluated, Mann-Whitney test, ns
as §2

[5] = tested on: human HFs in organ-cultured full-thickness human scalp skin fragments; assay: Hair cycle staging in organ-cultured human scalp skin fragments; type: cell-based; conditions: pooled data from six patients
Procedure: FIG. 13). Hair Cycle staging. Treatment of HFs with FOL-005 consistently induces anagen HFs within human scalp skin to enter catagen prematurely in all six patients tested (in each vertical bar, the top region corresponds to mid-catagen, the middle region to early catagen and the bottom region to anagen). Pooled data from 6 patients.
as §2

[6] = tested on: isolated human hair follicles; assay: Organ culture of isolated human hair follicles: hair cycle staging (anagen to catagen); type: cell-based
From the text: Anagen VI hair follicles (see Kloepper et al., 2010, the disclosures of which are incorporated herein by reference) were micro dissected from normal human scalp skin obtained with informed patient consent from three healthy adult females undergoing routine face-lift cosmetic surgery.
Isolated hair follicles were organ-cultured for 6-10 days in insulin- and hydrocortisone-supplemented William's E medium according to Philpott et al. (see Philpott et al., 1990; Bodó et al., 2009; Gáspár et al., 2010, the disclosures of which are incorporated herein by reference).
Treatment with the exemplary polypeptide FOL-005 was initiated immediately upon culturing the hair follicles, and lasted 7 to 10 days.
At the end of organ-culture, hair follicles were embedded and processed for longitudinal cryosections (Bodó et al., 2009; Gáspár et al., 2010).

[7] = tested on: intact human scalp skin; assay: Ki67/TUNEL double immunofluorescence in intact human scalp skin; type: cell-based; conditions: 60 nM; 3 days after treatment
Procedure: FIG. 7). Effect of FOL-005 on proliferation of Ki67 positive cells in intact human scalp skin. The concentration of FOL-005 was 60 nM, Mean+/−SEM, n=6-17 photos/punch was evaluated. “D3”=3 days after treatment.
To evaluate apoptotic and proliferating cells, double immunofluorescence was applied. Terminal dUTP nicked label-ling (ApopTag®Fluorescein in situ Apoptosis Detection Kit; Chemicon, Tenecula, Calif., USA) was used as a marker for apoptosis, and Ki67 immunoreactivity (DakoCytomation, Glostrup, Denmark) as indicator of cell proliferation, as previously described (Foitzik et. al., 2006).
Masson Fontana staining and immunohistochemistry was performed as described above.
The proliferation of Ki67 positive cells and apoptosis therein was determined as described in Whiting et al., 1999, J Investig Dermatol Symp Proc 4:282-284 (the relevant disclosures of which are incorporated by reference).
Cells were exposed to exemplary polypeptide FOL-005 at a dose of 60 nM.

[8] = tested on: intact human scalp skin; assay: Full-thickness human scalp skin organ culture: hair cycle staging; type: cell-based
Procedure: Full-thickness human scalp skin organ culture was performed for six days under serum-free conditions as described in (Lu et al., 2007, the disclosures of which are incorporated herein by reference).
In brief, scalp skin of female patients was obtained from routine face-lift surgery after informed consent. Human scalp skin was washed in William's E medium (Biochrom, Cambridge, UK) supplemented with 100 IU/ml penicillin G (Sigma, St Louis, Mo., USA), 10 μg/ml streptomycin (Sigma), 0.25 μg/ml amphotericin B (Gibco, Karlsruhe, Germany) for 5 min. The out-growing hair shafts were shaved off to the level of the epidermis; 2 mm biopsies of intact scalp skin were then punched out (parallel to the direction of hair growth, i.e. at an oblique angle), using an Acu-puncher (STIEFEL, Offenbach am Main, Germany).
The punches of human scalp tissue were carefully placed into William's E medium [supplemented with 100 IU/ml penicillin/10 μg/ml streptomycin, 10 μg/ml of insulin (Sigma), 10 ng/ml of hydrocortisone (Sigma) and 2 mmol/I of I-glutamine (Invitrogen, Paisley, UK)]. The skin fragments were left to float in the medium, with the epidermis up at air/liquid interface and the dermis/subcutis down. The cultures were maintained at 37° C. in a gassed incubator with 95% air and 5% CO2. The culture medium was changed every other day.
Immediately after commencement of culturing, the skin fragments were exposed to the exemplary polypeptide FOL-005 (at a dose of 15 nM to 3 μM), which lasted for the duration of culturing.
as §1

[9] = tested on: human HFs in organ-cultured full-thickness human scalp skin fragments; assay: K15 staining (indirect immunofluorescence); type: cell-based
Procedure: FIG. 25). […] Preservation of HF stem cell pool and thus regenerative potential by FOL-005.
as §2
K15 staining was performed using HS14-087 (indirect immunoflourescence, mouse anti-human CK15 Ab from Chemikon).

[10] = tested on: human HFs in organ-cultured full-thickness human scalp skin fragments; assay: MHCII staining (indirect immunofluorescence); type: cell-based
Procedure: FIG. 23). MHCII staining HS 14-061 (indirect immunofluorescence. Mouse anti human Ab HLA-DP-DQ-DR from DAKO). […] These MHCII+ cells are most likely macrophages.
as §2

[11] = tested on: human HFs in organ-cultured full-thickness human scalp skin fragments; assay: Ki67/TUNEL proliferation/apoptosis in organ-cultured human scalp skin fragments; type: cell-based; conditions: 15 nM; anagen and catagen HFs analysed
Procedure: FIG. 20). Ki67/TUNEL. […] Anagen & Catagen HFs analysed. Pooled data from 6 patients. Mean+/−SEM, n=48-59 HFs evaluated, Mann-Whitney test, *p<0.02. To reduce data distortion by outliers, Grubb's test was performed and the outlier value was eliminated from analysis.
as §2
Mean+/−SEM, n=48-59 HFs evaluated, Mann-Whitney test, *p<0.02. To reduce data distortion by outliers, Grubb's test was performed and the outlier value was eliminated from analysis.

[12] = tested on: human HFs in organ-cultured full-thickness human scalp skin fragments; assay: Masson Fontana HF pigmentation in organ-cultured human scalp skin fragments; type: cell-based; conditions: at the doses tested; pooled data from 6 patients
Procedure: FIG. 15). Masson Fontana staining. […] Anagen & Catagen Hair Follices analysed. Pooled data from 6 patients. Mean+/−SEM, n=41-51 HFs evaluated, unpaired Student's t-test, ns
FIG. 17). Masson Fontana staining. […] Anagen HFs analysed. Pooled data from 6 patients. Mean+/−SEM, n=13-22 HFs evaluated, unpaired Student's t-test, ns
as §2

[13] = tested on: isolated human hair follicles; assay: Masson Fontana melanin pigmentation analysis in cultured isolated human hair follicles; type: cell-based; conditions: 60 nM
Procedure: FIG. 3). Effect of FOL-005 on melatonin content in cultured isolated human hair follicles. The analysis was performed using Masson Fontana histochemistry and morphometric evaluation of each tissue section. Results presented as mean+/−SEM, n=26-47 hair follicles evaluated in each group. One-way ANOVA and Bonferroni's post-hoc test, *p<0.05
Masson Fontana staining: Cryosections were air dried and fixed in ethanol-acetic acid. The sections were washed in tris-buffered saline (TBS) and distilled water several times. Cryosections were treated with ammoniacal silver solution (Fluka, Seelze, Germany) for 40 min at 56° C. in the dark. After washing in distilled water, the sections were treated with 5% aqueous sodium thiosulphate (Merck, Darmstadt, Germany) for 1 min. Next, the sections were washed in running tap water for 3 min and were counter-stained in 0.5% aqueous neutral red (Sigma). After washing in distilled water, sections were dehydrated and mounted in Eukitt (O. Kindler, Freiburg, Germany).

[14] = tested on: human HFs in organ-cultured full-thickness human scalp skin fragments; assay: CD31 staining (indirect immunofluorescence); type: cell-based
Procedure: FIG. 24). CD31 staining HS14-061 (indirect immunoflourescence, mouse anti-human CD31 Ab from DAKO).
as §2

[15] = tested on: human HFs in organ-cultured full-thickness human scalp skin fragments; assay: Toluidine blue staining for perifollicular mast cells; type: cell-based
Procedure: FIG. 22). Toluidine blue staining for detecting Mast cells.
as §2

**Q.** For `Nc1cc(N2CCCCC2)nc(N)[n+]1[O-]` [Minoxidil, reference compound], which number of hairs/graft [1] is on record?
**A.** Its number of hairs/graft is 8.1±0.1 hairs/graft.

**Q.** For “VDTYDGDISVVYGLR (FOL-005, Peptide with similarity to sub-region of osteopontin) [exemplary polypeptide of the invention, osteopontin-derived 15-mer]”, which melanin pigmentation [2] is on record?
**A.** The melanin pigmentation was “significant reduction in pigmentation”.

**Q.** And the “morphology of the BM (basal membrane) in HFs” value [3]?
**A.** Its value is “No observable difference”.

**Q.** And the “number of emigrating dermal papilla (DP) cells in HFs” value [4]?
**A.** The value was “No significant effect”.

**Q.** What about the “HF cycling (anagen to catagen)” value [5] of the same compound?
**A.** The value was “consistently induced anagen HFs within human scalp skin to enter catagen prematurely in all six patients tested”.

**Q.** What about the “hair follicle regression (analysis of cryosections)” value [6] of the same compound?
**A.** The value was “promotes hair follicle regression”.

**Q.** And the “transition from anagen to catagen phase” value ([6]; 15 nM, 60 nM and 300 nM, treatment 7 to 10 days)?
**A.** Its value is “induced a dose-dependent transition from anagen to catagen phase”.

**Q.** And the “apoptosis (proportion of TUNEL positive cells)” value [7]?
**A.** The value was “increased level of apoptosis”.

**Q.** What about the “proliferation (proportion of Ki67 positive cells)” value [7] of the same compound?
**A.** Its value is “strong tendency towards reduced proliferation”.

**Q.** And the “hair follicles in early catagen” value ([8]; addition to the culture medium)?
**A.** The value was “Almost all hair follicles are observed in early catagen”.

**Q.** What about the “hair follicle regression (analysis of cryosections)” value ([8]; human skin pieces (Example B)) of the same compound?
**A.** The value was “promotes hair follicle regression”.

**Q.** And the catagen induction ([8]; injection into the scalp skin tissue)?
**A.** The catagen induction was “Catagen was also induced”.

**Q.** What about the “transition from anagen to catagen phase” value ([8]; intact human scalp skin, 15 nM to 3 μM, six days culture) of the same compound?
**A.** Its value is “induced a rapid transition from anagen to catagen phase”.

**Q.** What about the “number of K15+ cells” value [9] of the same compound?
**A.** The value was “No marked differences”.

**Q.** And the “human HF epithelial stem cells” value ([9]; K15 staining)?
**A.** Its value is “not affected negatively”.

**Q.** What about the “number of immunohistologically-detectable perifollicular MHC class II+ cells” value [10] of the same compound?
**A.** Its value is “No marked difference”.

**Q.** What about the “number of apoptotic cells in HFs” value [11] of the same compound?
**A.** The value was “significant increase”.

**Q.** And the “number of proliferative cells in HFs” value [11]?
**A.** Its value is “No significant changes”.

**Q.** What about the HF pigmentation [12] of the same compound?
**A.** Its HF pigmentation is “No significant changes”.

**Q.** And the melanin pigmentation [13]?
**A.** The melanin pigmentation was “significant reduction in pigmentation”.

**Q.** And the “number of CD31+ cells (endothelial cells)” value [14]?
**A.** The value was “No marked differences”.

**Q.** What about the “number of histochemically-detectable perifollicular mast cells” value [15] of the same compound?
**A.** Its value is “No marked difference”.

**Q.** And the number of hairs/graft [1]?
**A.** The number of hairs/graft was 2.1±0.4 hairs/graft.

— patent publication US20170143605A1, “Compositions Comprising Osteopontin Derivatives for the Inhibition of Hair Growth” (FOLLICUM AB, priority 2014, published 2017)
